Results taken from EP0333351A2, “Platinum coordination compounds” (JOHNSON MATTHEY PUBLIC LIMITED COMPANY, priority 1988, dated 1989).

Tested on: ADJ/PC6 tumour
Assay: Antitumour activity against the ADJ/PC6 tumour in mice, intraperitoneal route (LD50, ED90, T.I.)
Assay type: in vivo
Conditions: for ED90: Table 1, ADJ/PC6 tumour in mice; for LD50: Table 1, mice
Procedure: The invention will now be described by way of example only. A selection of compounds according to the invention were prepared by the above-described method, and were characterised by elemental analysis and infra red spectroscopy. The compounds were compared against known compounds and against each other for activity against the ADJ/PC6 tumour in mice, when given by the intraperitoneal route and the results are tabulated below.

Compound	ED90	LD50
N.N.[Cl][Pt]([Cl])([Cl])[Cl] [Comparison A]	3.4 mg/kg	18 mg/kg
NC1CCCCC1.NC1CCCCC1.[Cl][Pt]([Cl])([Cl])[Cl] [Comparison B]	10 mg/kg	190 mg/kg
